The source of these data is patent US20020120242A1, “Absorbent articles with hydrophilic compositions containing botanicals” (priority 2000, published 2002).

The structures appear in SMILES notation. Several values for one entry are separate records, joined by “and”; a condition that tells them apart may be missing. Identical values can stand only once. Like-named read-outs stand apart in the source and are kept apart here. Marks after values point to notes of the source that are not given here.

The test system of series [1] is EPIDERM skin culture. The series is described as follows: MTT viability assay on EPIDERM skin culture after test composition + insult. (In general: Tetrazolium assays rely on reduction of a dye to a coloured formazan, in cell work by metabolically active cells.)
Excerpt: (§1) The MTT dye is taken up by the cells. The reduction of the dye as a result of cellular metabolism can be used to measure the cytotoxicity of the test compositions. In order to confirm viability, inserts of the EPIDERM skin culture that have already been subjected to the test compositions and biological insults are removed from their media and are washed consecutively through immersion in three different beakers of PBS. Fresh PBS is used for each test composition or control being evaluated. The PBS is discarded onto paper towel. The EPIDERM skin culture inserts are then patted onto paper towel and placed into the wells of a 24 well plate containing 300 microliters of pre-warmed media. After all of the EPIDERM skin culture inserts are washed, they are transferred to new 24 well plates containing 300 microliters of the MTT reagent. The MTT reagent is thiazolyl blue having the formula 3-[4,5-Dimethylthiazol-2-yl]-2,5-diphenyltetrzoliumbromide. The plates are incubated for 2 hours in a 37° C., 5% CO2 incubator. After incubation, the EPIDERM skin culture inserts are transferred to 24 well plates and are immersed in 2 milliliters of MTT extraction buffer. The extraction buffer extracts the MTT reagent from the cells. The 24 well plates are parafilmed, covered and placed in ZIPLOCK bags to reduce evaporation of the extraction buffer. The covered plates are rocked overnight in the dark. Following overnight rocking, the liquid in the EPIDERM skin culture inserts is decanted back into the wells. The contents of each well are mixed and a 200 microliter aliquot is then removed from each well and transferred to a 96 well plate. The optical density (OD) of the samples is measured at 570 nm using a spectrophotometer. Five hundred seventy nanometers is the optimal wavelength at which to measure the reduced form of MTT reagent. This reading is subtracted from a background reading at 650 nm to improve data quality. Percent viability of each test composition+insult relative to the control+PBS is recorded as the Mean ODtest composition+insult divided by the Mean ODcontrol+PBS; the quotient then multiplied by 100.
The test system of series [2] is interleukin-1 alpha. The series is described as follows: EPIDERM skin culture irritation test, fecal protease (trypsin-chymotrypsin) insult, IL-1 alpha release. It counts as cell-based, human. Here is the method: In order to evaluate the efficacy of the compositions of the invention, a human skin culture was selected to model the response of the human epidermis. EPIDERM skin culture is a cornified, air-interfaced human skin culture. EPIDERM skin culture has multiple layers of progressively differentiated keratinocytes resembling human epidermis. EPIDERM EPI-200 skin culture can be purchased from MatTek Corporation of Ashland, Mass. Experiments using EPIDERM skin culture are conducted in six well plates. Typically, five EPIDERM skin culture inserts are added to five of the six wells. Each well contains one milliliter of pre-warmed media that is the same as the EPIDERM skin culture media. The plates are then incubated in a 37° C., 5% CO2 incubator for thirty minutes. After incubation, 15 microliters of test composition or control are applied to the surface of the EPIDERM skin culture after removing any residual media. The well plates, with the test compositions/control applied, are incubated in the 37° C., 5% CO2 incubator for thirty minutes after which the underlying media is removed and replaced with fresh, pre-warmed media. Next, ten microliters of insult solution, either fecal protease or bile acid, are applied to the surface of the EPIDERM skin culture.
The insult solution is prepared by diluting a 10 mg/ml stock solution in phosphate-buffered saline to a working concentration of 250 µg/ml. The base of the stock solution is 50 mM NaOAcetate, pH 5.5 and 0.15 M NaCl stored at −80° C. […] The bile acid insult solution can be prepared by dissolving 65 mg of cholic acid, 62 mg of deoxycholic acid and 31 mg of chenodeoxycholic acid in 10 ml of phosphate-buffered saline. The bile acid insult components can be purchased from Sigma Chemical Co. of St. Louis, Mo. Phosphate-buffered saline, pH 7.4 (hereinafter “PBS”) can be purchased from Life Technologies of Rockville, Md.
For internal studies, infant feces were collected and the amount of total protease and trypsin activities determined for each of the fecal extracts. To prepare the extract, the feces were suspended in water and vigorously vortexed. After vortexing, the samples were held on ice prior to centrifugation at 15,000 times the force of gravity for 20 minutes. The supernatant was filtered through 0.22 micron cellulose acetate filters and stored at −80° C. until use.
After application of the insult solution, the well plates are incubated for six hours in the 37° C., 5% CO2 incubator. At the end of six hours, the well plates are removed from the incubator, the underlying media is removed and stored at −80° C. The response of the EPIDERM skin culture to the test compositions/control and the insult solution is determined by measuring the amount of interleukin-1 alpha (hereinafter “IL-1”). Interleukin-1 alpha can be quantified using an Interleukin-1 alpha Quantikine Kit available from R&D Systems of Minneapolis, Minn. Interleukin-1 alpha measurements are converted to Log10 for each of the treatments and the averages for each treatment are calculated. In order to determine the ability of the test compositions to reduce skin irritation caused by the biological insults, the percent mean reduction of IL-1 is calculated as follows: [formula]
EPIDERM skin culture studies were conducted to measure the reduction in IL-1 response between compositions of the invention and a fecal protease-induced irritation. The studies were conducted using botanicals that are representative of the invention.

Series [3] relates to interleukin-1 alpha. Put plainly: EPIDERM skin culture irritation test, protease and bile acid insult, IL-1 alpha release. It counts as cell-based, human. Particulars: 4 mg/ml in water, 30 minutes pretreatment; protease and bile acid insult 6 hours; sample size six. Here is the method:
An additional set of EPIDERM skin culture experiments was conducted to predict the effect of extracted botanical actives on the irritation response to a protease and bile acid insult. The method for utilizing the EPIDERM skin culture described above was also used for this set of experiments evaluating response to a protease and bile acid insult. The EPIDERM skin culture was pretreated with 15 l of test composition containing 4 mg/ml of epigallocatecin gallate in water for a period of 30 minutes in a 37° C./5% CO2 incubator. The skin culture wells were then treated with 10 µl of a protease and bile acid insult for 6 hours under the same incubation conditions. Phosphate-buffered saline solution of pH 7.4 was used as a negative control. After 6 hours, the underlying media is removed and stored at -80° C. The amount of IL-1 from the media was quantified using an Interleukin-1 alpha Quantikine Kit available from R&D Systems of Minneapolis, Minn. The protease and bile acid insult was prepared by mixing equal volumes of a bile acid insult with a protease insult. The bile acid insult included 13 mg/ml cholic acid (sodium salt), 12.4 mg/ml deoxycholic acid (sodium salt) and 6.2 mg/ml chenodeoxycholic acid (sodium salt) prepared in pH 7.4 phosphate-buffered saline. […]

In series [4] the target is T1, porcine pancreatic trypsin (Sus scrofa, UniProt P00761).
T1 construct: purchased Sigma Chemical of St. Louis, Mo; host or cells: pancreas (porcine)
T1 sequence (P00761 9-231): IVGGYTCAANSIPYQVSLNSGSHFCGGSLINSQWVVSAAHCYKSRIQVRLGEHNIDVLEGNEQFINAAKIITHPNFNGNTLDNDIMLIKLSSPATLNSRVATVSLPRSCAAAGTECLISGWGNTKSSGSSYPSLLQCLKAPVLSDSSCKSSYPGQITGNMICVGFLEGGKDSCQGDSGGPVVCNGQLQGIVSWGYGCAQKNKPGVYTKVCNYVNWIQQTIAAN
The series is described as follows: Trypsin inhibition in solution with BAPNA chromogenic substrate. Conditions: for Trypsin Inhibition (IC50): solid form dissolved in PBS. In kind it is biochemical. Here is the method:
More specifically, compositions of the invention were evaluated for their inhibitory effect on porcine pancreatic trypsin in solution. Porcine pancreatic trypsin from Sigma Chemical of St. Louis, Mo. was prepared at a concentration of 1600 ng/ml in 100 mM Tris-HCL pH 8.0-buffer. Twenty-five microliters of the porcine pancreatic trypsin was added to the wells of a NUNC IMMUNO clear 96 well plate. The wells also contained 150 µl of 100 mM Tris-HCL pH 8.0 buffer and 25 µl of a test composition diluted as necessary in PBS. After a fifteen minute incubation at room temperature, the reaction is initiated by adding 50 µl of a 5 mM solution of chromogenic trypsin substrate (N-benzyl-arginine-p-nitroanalide (BAPNA)) to each of the wells. The BAPNA is prepared at 50 mM in neat dimethylsulfoxide and diluted in water to a 5mM working stock solution. In order to measure the progress of the reactions, optical density measurements were taken at 405 nm every 20 seconds (after a two minute delay) for 10 minutes with a THERMOMAX Microplate Reader (Molecular Devices, Sunnyvale, Calif.). […] Below. The IC50 value is based on a dilution of the liquid stock botanical. The actual concentration of the botanical/salt compositions is not known except for those compositions available in solid form. For the solid forms, stock concentrations in PBS can be accurately made up.

Series [5] has as its system EPIDERM skin culture. Particulars: human, 4 mg/ml.
Excerpt: as §1
The mark [6] stands for this setting: 4 mg/ml in PBS, trypsin-chymotrypsin insult (Table 3).

For the compound `O=C(O[C@@H]1Cc2c(O)cc(O)cc2O[C@@H]1c1ccc(O)c(O)c1)c1cc(O)c(O)c(O)c1` [Epicatechin gallate], in series [1] (setting [6]), the “Viability (percentage)” value turned out to be 143%. Also, in series [2] (setting [6]), the “Mean Reduction of Interleukin-1 Alpha (percentage)” value (“Mean Reduction … (percentage)” below) is 62% (5)*.
For `Oc1cc(O)c2c(c1)O[C@H](c1ccc(O)c(O)c1)[C@H](O)C2` [Epicatechin] the same measures were 111% and 24% (5).
In the case of `O=C(O[C@@H]1Cc2c(O)cc(O)cc2O[C@@H]1c1cc(O)c(O)c(O)c1)c1cc(O)c(O)c(O)c1` [Epigallocatechin gallate], the IL-1 reduction in series [3] was 28%. The “Viability (percentage)” value is 126% in series [1] (setting [6]); 103% and 101% and 112% in series [1] (0.4% (w/v) in PBS + protease insult, relative to control + PBS). The “Mean Reduction … (percentage)” value in series [2] (0.4% (w/v) in PBS, fecal protease insult 6 hours, one value per set of experiments) was 77% and 71% and 50%. The “reduction of trypsin activity in solution (in words)” value in series [4] (conclusion from Table 5) is on record as “effective at reducing trypsin activity in solution”. Besides, the “Trypsin Inhibition (IC50)” value in series [4] is reported as 0.00002% (w/v).
Consider `Oc1cc(O)c2c(c1)O[C@H](c1cc(O)c(O)c(O)c1)[C@H](O)C2` [Epigallocatechin], for which, in series [5], the “Viability (percentage)” value came out at 125%. In addition, the “Mean Reduction … (percentage)” value in series [2] (setting [6]) is on record as 30% (5).
Turning to `[Cl-].[Cl-].[Sr+2]` [Strontium Chloride], the “Mean Reduction … (percentage)” value in series [2] (1% in PBS, fecal protease insult 6 hours, one value per set of experiments) is given as 0% (10); in series [2] (10% in PBS, fecal protease insult 6 hours, one value per set of experiments), 15% (10). The “Trypsin Inhibition (IC50)” value in series [4] was >0.5% (w/v).
